Results as given in the METLIN SMRT retention time set (Domingo-Almenara et al. 2019).

Assay: gradient 5% acetonitrile 3 min, to 50% in 2 min, to 85% in 15 min, held 3 min, 100 µL/min
Conditions: column: Zorbax Extend-C18 2.1 x 50 mm; eluents: water / acetonitrile, 0.1% formic acid
In short: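 Data were gathered over 3 months by HPLC coupled to a quadrupole time-of-flight mass spectrometer, operated in positive and negative ionization mode. Mixtures of ~100 pure standards ran on a Zorbax Extend-C18 column (2.1 × 50 mm, 1.8 μm) at 100 μL/min, with water and acetonitrile each containing 0.1% formic acid and dead and dwell volumes of 40 μL and 900 μL. Retention time was read from adduct peaks picked by computer and checked manually.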

## CCN1CCN(C(=O)Nc2cccc(C(=O)OC)c2)c2cccnc21
  RP-LC retention time: 612 s

## Nc1c(C(=O)NCc2ccccc2Cl)nsc1C(=O)N1CCN(c2ccccn2)CC1
  RP-LC retention time: 715 s

## COCCCNC(=O)C1CCC(=O)N(c2ccc3c(c2)OCO3)C1c1ccc(OC)cc1 (centres undefined)
  RP-LC retention time: 644 s

## CC1=C(C(=O)Nc2ccc(C(=O)N3CCN(c4ccc(Cl)cc4)CC3)cc2)SCCO1
  RP-LC retention time: 957 s

## O=C(O)c1cccc(Nc2c(-c3cccc(Cl)c3)nc3cnccn23)c1
  RP-LC retention time: 737 s

## O=C(Nc1cccn2nc(C3CCC3)nc12)c1ccc(C(F)(F)F)s1
  RP-LC retention time: 1120 s

## Cc1[nH]ncc1CNC(=O)C1CCN(C(=O)c2ncn3c2COC(c2ccc(F)cc2)C3)CC1 (centres undefined)
  RP-LC retention time: 626 s

## CC(C)c1cnc2c(c1SCc1cccnc1)c(=O)n(C)c(=O)n2C
  RP-LC retention time: 691 s

## O=C(c1ccccc1)N1CCC(Oc2cc(N3CCOCC3)ncn2)C1 (centres undefined)
  RP-LC retention time: 676 s

## O=S(=O)(c1ccc(-c2nnc(C3CCC3)o2)o1)N1CCN(c2ccccc2)CC1
  RP-LC retention time: 1090 s

## COCC(=O)NC(Cc1ccccc1)c1nnc(N2CCSCC2)o1 (centres undefined)
  RP-LC retention time: 721 s

## CCCC(C)C(=O)N1CCCN(C2=NS(=O)(=O)C(c3ccc(C)cc3)=C2C)CC1 (centres undefined)
  RP-LC retention time: 884 s

## Cc1cccc(NC(=O)C2(C)Oc3cccnc3N(C)C2=O)c1C (centres undefined)
  RP-LC retention time: 808 s

## O=C(CSc1nnc2c3sc(N4CCCC4)nc3ncn12)Nc1ccc2c(c1)OCCO2
  RP-LC retention time: 758 s

## Cc1cnc(C2CC2)n1C1CCCN(S(=O)(=O)c2ccccc2)C1 (centres undefined)
  RP-LC retention time: 654 s

## COCC(=O)N1CCC(Oc2nccnc2N2CCOCC2)C1 (centres undefined)
  RP-LC retention time: 584 s

## Cc1cccc(N2CCN([C@H]3CS(=O)(=O)C[C@@H]3S(=O)(=O)c3ccccc3)CC2)c1C
  RP-LC retention time: 1060 s

## Cc1cccc(N2CCN(Cc3nc4nc(C)cc(N5CCCC5)n4n3)CC2)c1
  RP-LC retention time: 632 s

## Cc1cc(C)c2oc(C(=O)NCC(c3ccccc3)N(C)C)cc(=O)c2c1 (centres undefined)
  RP-LC retention time: 636 s

## Cc1sc(-c2cc(C(F)(F)F)on2)cc1S(=O)(=O)N1CCCc2ccccc21
  RP-LC retention time: 1300 s

## COc1ccc(-c2ncc3c(n2)CCN(C(=O)Cc2ccccc2Cl)C3)cc1
  RP-LC retention time: 989 s

## CCc1noc(NC(C)=O)c1-c1ccc(OC)c(S(=O)(=O)Nc2ccc3c(c2)OCCO3)c1
  RP-LC retention time: 736 s

## O=C(NCc1ccccc1Cl)C(=O)Nc1cccc(N2CCCCC2=O)c1
  RP-LC retention time: 751 s

## Cc1ccc(C(=O)N2C[C@@H](C)[C@H](c3nc(C)no3)C2)cn1
  RP-LC retention time: 593 s

## CN(Cc1nc2ccccc2n1CCc1ccccc1)C(=O)c1ccco1
  RP-LC retention time: 706 s

## O=C(CS(=O)(=O)Cc1ccccc1)NCc1ccccc1
  RP-LC retention time: 741 s

## CCOC(=O)c1oc2ccc(S(=O)(=O)NCC3Cn4cccc4C(=O)N3C)cc2c1C (centres undefined)
  RP-LC retention time: 810 s

## Clc1ccc(-c2cc3c(N4CCN(c5ccccn5)CC4)nccn3n2)cc1
  RP-LC retention time: 727 s

## Cc1ccc2c(c1)sc1nncn12
  RP-LC retention time: 749 s

## CCc1ccc(C(=O)N2CCN(c3nc(CN4CCCCCC4)cs3)CC2)cc1
  RP-LC retention time: 708 s

## Cc1cccc(NC(=O)COc2ccc(-c3cnc4ccccc4n3)cc2)n1
  RP-LC retention time: 911 s

## COCC1CN(S(=O)(=O)c2cc(F)ccc2OC)CC12CCNCC2 (centres undefined)
  RP-LC retention time: 611 s

## CC1=C(c2ccc(F)cc2)S(=O)(=O)N=C1N1CCCN(C(=O)c2ccc(C)s2)CC1
  RP-LC retention time: 857 s

## Cc1nc(C2CN(S(=O)(=O)c3ccccc3C(F)(F)F)CC23CCOCC3)no1 (centres undefined)
  RP-LC retention time: 892 s

## Cc1ccccc1Cn1c(CN2CCC(C(=O)N(C)Cc3ccco3)CC2)cc2ccccc21
  RP-LC retention time: 816 s

## O=C(NCc1ccccc1Cl)C1CCc2nc(N3CCOCC3)ncc2C1 (centres undefined)
  RP-LC retention time: 726 s

## Cn1c(C2CCN(C(=O)Nc3ccccc3Br)CC2)cc(=O)n2nccc12
  RP-LC retention time: 654 s

## CCSc1nnc(NC(=O)C2CCCN(c3ccc(-c4ccco4)nn3)C2)s1 (centres undefined)
  RP-LC retention time: 672 s

## CCc1nc2cc3c(cc2n1CC(=O)N1CCOCC1)OCCO3
  RP-LC retention time: 567 s

## O=C(NCCC1=CCCCC1)C(=O)NCc1ccsc1
  RP-LC retention time: 894 s

## COc1ccc(-c2ccnc3ncnn23)c(F)c1
  RP-LC retention time: 681 s

## Cc1cc(S(=O)(=O)N(C)CC2CCOCC2)ccc1F
  RP-LC retention time: 879 s

## Cc1ccc(NC(=O)c2cn(C)nc2S(=O)(=O)N2CCSCC2)cc1Cl
  RP-LC retention time: 1080 s

## CC(C)c1noc(-c2cccnc2N2CCCN(Cc3c(F)cccc3Cl)CC2)n1
  RP-LC retention time: 721 s

## Cn1cc(C(=O)Nc2ccc(N3CCOCC3)cc2)c2cccnc21
  RP-LC retention time: 658 s

## COc1ccccc1N1CCN(c2cc(SCC(=O)Nc3cccc(C)c3C)ncn2)CC1
  RP-LC retention time: 1030 s

## Cc1ccc(CNC(=O)C2CC(=O)N(c3ccc4oc(C)nc4c3)C2)cc1 (centres undefined)
  RP-LC retention time: 732 s

## Cc1nnc2sc(SCc3ccc(Cl)cc3Cl)nn2c1=O
  RP-LC retention time: 869 s

## O=C(C1CCN(S(=O)(=O)Cc2ccc(Cl)cc2)CC1)N1CCOCC1
  RP-LC retention time: 725 s

## CCN(CC)CCNC(=O)CN1N=C(c2ccc(Cl)cc2)CCC1=O
  RP-LC retention time: 625 s

## COc1cccc(C(=O)N2CCC(c3cc(N)on3)CC2)c1OC
  RP-LC retention time: 639 s

## Cc1ccc(C)c(NC(=O)CN(C)S(=O)(=O)c2cc(C(=O)N3CCC(C)CC3)n(C)c2)c1
  RP-LC retention time: 924 s

## O=C(Nc1ccccc1)C1CCN(C(=O)C2Sc3ccccc3NC2=O)CC1 (centres undefined)
  RP-LC retention time: 731 s

## COc1cc(C2CC(=O)c3c([nH]c(C(=O)OCC4CCCCC4)c3C)C2)cc(OC)c1OC (centres undefined)
  RP-LC retention time: 1180 s

## COc1ccc2oc(-c3ccccc3)c(C(=O)Nc3nccs3)c2c1
  RP-LC retention time: 931 s

## Cn1cnc2c(C(=O)NC3CCCCC3)nn(-c3ccccc3)c2c1=O
  RP-LC retention time: 855 s

## Cc1ccc(S(=O)(=O)N2CCc3c(c(-c4nnc(-c5ccccc5)o4)nn3C)C2)c(C)c1
  RP-LC retention time: 1020 s

## COc1ccc(N2CCN(Cc3nc(-c4ccc(N5CCCC(C)C5)nc4)no3)CC2)cc1 (centres undefined)
  RP-LC retention time: 1020 s

## O=C(Cc1ccc(Cl)cc1)Nc1ccc(N2CCN(C3CCCC3)C2=O)nc1
  RP-LC retention time: 834 s

## Cc1ccc(NC(=O)Cn2cnc3nc(N4CCCC(C(=O)NC(C)C)C4)sc3c2=O)cc1C (centres undefined)
  RP-LC retention time: 730 s

## COc1cccc(-c2ccc(SCC(=O)Nc3ccccc3C(F)(F)F)nn2)c1
  RP-LC retention time: 912 s

## O=C(NCCCN1CCCC1=O)C1CCN(c2cncnc2N2CCCCC2)CC1
  RP-LC retention time: 582 s

## COCc1nc(C2CCN(C(=O)Nc3ccc4c(c3)OCCO4)C2)no1 (centres undefined)
  RP-LC retention time: 662 s

## CCc1nc2cc(N3CCC(C(=O)NCc4ccc(F)cc4F)CC3)cnc2nc1CC
  RP-LC retention time: 852 s

## CCC(CN1CCOCC1)NC(=O)c1c2c(cn(-c3ccc(F)cc3)c1=O)C(=O)CC(C)(C)C2 (centres undefined)
  RP-LC retention time: 657 s

## CS(=O)(=O)c1nc2ccc(NS(=O)(=O)c3ccc4c(c3)OCCO4)cc2s1
  RP-LC retention time: 792 s

## O=C(NCc1[nH]nc2ccccc12)c1ccc2c(c1)OCO2
  RP-LC retention time: 704 s

## O=S(=O)(NCc1nc(-c2cccc(-c3ccn[nH]3)c2)no1)c1ccccc1
  RP-LC retention time: 768 s

## COc1ccc(NC(=O)N2CCCC2c2nc(-c3cccc(Cl)c3)no2)c(OC)c1 (centres undefined)
  RP-LC retention time: 1070 s

## Cc1cccc(OCc2nc(C)c(C(=O)Nc3nc(-c4ccc(Cl)cc4)cs3)s2)c1
  RP-LC retention time: 1360 s

## Cn1cnnc1CC1CCN(C(=O)Nc2ccccc2)C1 (centres undefined)
  RP-LC retention time: 587 s

## O=S(=O)(NCc1ccc2c(c1)OCO2)N1CCOCC1
  RP-LC retention time: 677 s

## O=C(NCCCN1CCCCC1)c1cc(=O)n2c(nc3ccccc32)s1
  RP-LC retention time: 621 s

## COc1ccc(S(=O)(=O)N2CCCC(C(=O)NCC3CCCO3)C2)cc1C (centres undefined)
  RP-LC retention time: 778 s

## Cn1nc(-c2nc(C3CC3)no2)c2c1CCN(C(=O)c1ccccc1Br)C2
  RP-LC retention time: 821 s

## O=C(c1cc(-c2ccncc2)n[nH]1)N1CCN(C(=O)C2(c3ccccc3)CC2)CC1
  RP-LC retention time: 590 s

## CCCCN(C)C(=O)CCC1CCN(c2cc(NC3CC3)ncn2)CC1
  RP-LC retention time: 654 s

## CC1CCCN(Cc2nc(-c3ccc(N(C)Cc4ccccc4)nc3)no2)C1 (centres undefined)
  RP-LC retention time: 734 s

## CCc1ccc(-n2ncc3c(=O)n(Cc4nc(-c5cc(OC)c(OC)c(OC)c5)no4)cnc32)cc1
  RP-LC retention time: 1080 s

## CCCCN(C)c1ncc(C(=O)NCc2ccccc2)c(N)n1
  RP-LC retention time: 690 s

## CC(C)NC(=O)N1CCC2(CC1)CCC(O)(CN1CCc3ccccc31)CC2
  RP-LC retention time: 882 s

## CNC(=O)c1c(NC(=O)c2cccc(OC)c2)sc2c1CCC2
  RP-LC retention time: 1050 s

## Cc1ccc(CS(=O)(=O)N2CCC(C3CCNC3)CC2)cc1 (centres undefined)
  RP-LC retention time: 588 s

## CCCc1nc(NCc2cccnc2)ncc1C(=O)O
  RP-LC retention time: 569 s

## COc1ccc(C2(C(=O)N3CC(c4nc(CCOCc5ccccc5)no4)C3)CC2)cc1
  RP-LC retention time: 972 s

## COCCNC(=O)C1COC2(CCCCC2)N1C(=O)c1cccc(C(F)(F)F)c1 (centres undefined)
  RP-LC retention time: 814 s

## O=C1NC2(CCN(C(=O)Nc3ccc(Cl)cc3)CC2)N=C1c1cccc(F)c1
  RP-LC retention time: 872 s

## Cn1cnc(S(=O)(=O)N2CCCN(S(=O)(=O)c3cccc4nsnc34)CCNC(=O)CC2c2ccccc2)c1 (centres undefined)
  RP-LC retention time: 702 s

## CCCNC(=O)c1ncn2c1C(=O)N(CCC)C(C)(C(=O)NCc1ccc(C)cc1)C2 (centres undefined)
  RP-LC retention time: 750 s
